Columns and labels:
[1] = test system: D1 receptor; details: cited from earlier work
[2] = test system: αSMA; experiment: TGFβ-induced αSMA+ stress fiber formation in fibroblasts; format: cell-based, human; details: TGFβ 72 hours, DHX from 48-72 hours
Procedure: (§1) Media was then exchanged for the indicated conditions for each experiment. Cells were fixed in 3.7% formalin (Sigma-Aldrich), permeabilized in 0.25% Triton X-100 (Sigma-Aldrich) and then blocked with 1% BSA for 1 h. Cells or tissue sections were incubated overnight with mouse monoclonal antibody against αSMA (Sigma-Aldrich F3777), and/or a rabbit monoclonal antibody against YAP/TAZ (Cell Signaling D24E4) diluted 1:200 in PBS with 1% BSA. Cells were then washed and exposed to flourescence-conjugated secondary antibodies (Invitrogen) diluted 1:1000 and DAPI (Thermo Fisher Scientific). Images were taken with a Cytation5 (BioTek) microscope. For scoring αSMA positive cells (FIG. 12), an observer blinded to the treatment conditions counted αSMA-positive cells using a visual threshold for bright fibrous staining; a minimum of 200 cells was counted for each condition. YAP/TAZ localization was quantified (FIGS. 6-10, 24-26, and 29-30) using Gen5 (Biotek) software. Images were taken at 4× magnification of both DAPI and YAP/TAZ staining. […] Quantification of double positive (YAP/TAZ and αSMA) cells from lung tissue sections (FIG. 17-21) was performed similarly; however separate thresholds were established for both YAP/TAZ and αSMA. A minimum of 4000 cells was quantified for each mouse.

[3] = test system: YAP; experiment: Western blotting of YAP serine 127 phosphorylation; format: cell-based, human; details: IMR-90 cells, 10 μM, 2 hours
Procedure: IMR-90 cells cultured for 24 hours in media containing 0.1% FBS, treated 2 hours prior to fixation. N=3 (***p<0.001 vs. 0.1% DMSO vehicle control).
Western Blotting: Cells were plated in EMEM containing 10% FBS overnight. Media was exchanged with EMEM containing 0.1% FBS for 24 hours. Prior to protein isolation cells were treated with the indicated concentration of compounds for the indicated time. Total protein was isolated using RIPA buffer (pH 8.0) containing Pierce Phosphatase Inhibitor (Thermo) and Halt Protease Inhibitor Cocktail (Thermo). Lysate total protein concentration was determined using Pierce BCA Protein Assay Kit (Thermo) and samples were run on a 10% polyacrylamide gel. Blots were incubated overnight with primary antibodies: pYAP (Ser 127, Cell Signaling D9W21), YAP/TAZ (Cell Signaling D24E4), GAPDH (Cell Signaling 14C10), HSC70 (Santa Cruz sc-7298), αSMA (Abcam ab5694), and fibronectin (Santa Cruz sc-9068) diluted 1:1000 in Li-Cor Odyssey Blocking Buffer. Blots were washed with TBS-Tween before 60 minute incubation with IR-dye-conjugated secondary antibodies (Li-Cor) diluted 1:10,000. Plates were imaged via a Li-Cor OdysseyXL system with quantification performed via densitometry.

[4] = test system: YAP/TAZ; experiment: YAP/TAZ nuclear localization in IMR-90 and other fibroblasts / mesenchymal cells (immunofluorescence); format: cell-based, human; details: for YAP/TAZ nuclear localization: fibroblasts / mesenchymal cells on plastic, 2 hours
Procedure: Selective agonists of dopamine receptor D1 with varying efficacy inhibit YAP/TAZ nuclear localization; this effect can be overcome by treatment with a DRD1 receptor antagonist (SCH 39166, 3 μM), (Dihydrexidine, 10 μM). IMR-90 cells treated 2 hours prior to fixation. N=4 (****p<0.0001 vs. 0.10% DMSO vehicle control). Scale bar represents 100 μm.
In each case DHX treatment (10 μM) can reverse this effect on YAP/TAZ. IMR-90 cells plated densely onto plastic cell culture plates for 24 hours in media containing 0.1% FBS, treated for 2 hours prior to fixation. N=4 (****p<0.0001 vs. 0.1% DMSO vehicle control), (++++p<0.0001 vs. the respective stimulated agonist ET-1, LPA, or 5-HT). Scale bar represents 100 μm.
Mesenchymal cells derived from lung (IMR-90 and IPF-FBs) hepatic stellate cells (HSC), human adult cardiac fibroblasts, (HACF) and human dermal fibroblasts (HDF) were plated densely (Confluent) or sparsely (Control and all remaining conditions) onto plastic cell culture plates for 24 hours in media containing 0.10% FBS, treated for 2 hours with Rho kinase inhibitor Y27632, adenylate cyclase activator forskolin and DHX. N=4, Cells that were positive for nuclear YAP/TAZ were quantified by automated image analysis.
as §1, with “Immunofluorescence Microscopy: Cells were plated into 96 well plates (Corning 3603) in their specific growth media and allowed to attach (8 hours). Media” for “Media”

In the case of `Oc1cc2c(cc1O)[C@H]1c3ccccc3CN[C@@H]1CC2` (racemic) [Dihydrexidine], the “efficacy at elevating cAMP (D1 receptor)” value [1] is given as “full magnitude cAMP response”, the “TGFβ-induced myofibroblastic transition (αSMA+ stress fibers)” value [2] is given as “reversed this transition” and the “YAP serine 127 phosphorylation” value [3] is given as “promoted YAP serine 127 phosphorylation”. The “YAP/TAZ nuclear localization stimulated by GPCR ligands” value ([4]; confluent fibroblasts, endothelin-1, lysophosphatidic acid, serotonin, DHX 10 μM) was “blocked nuclear localization of YAP/TAZ”, the YAP/TAZ nuclear localization [4] was “reduced nuclear localization of YAP/TAZ” and the YAP/TAZ nuclear localization ([4]; listed as DHX) was “effective at inhibiting YAP/TAZ nuclear localization”. The “potency of inhibition of YAP/TAZ nuclear localization, normal vs IPF lung fibroblasts” value ([4]; normal lung fibroblasts vs those from a patient with IPF) was “equally potent”.
